Test results taken from patent publication US7700553B2, “Selective inhibition of NF-κB activation by peptides designed to disrupt nemo oligomerization” (priority 2003, dated 2010).
Ends that are not written are not given here. Peptide text beside a SMILES is read from it. * marks the point of attachment. BODIPYFLEthylmaleimide = Cc1cc(C)n2c1C=C1C=CC(CCC(=O)NCCN3C(=O)CC(*)C3=O)=[N+]1[B-]2(F)F; BODIPY = not defined here; Cam = NC(=O)C*

Experiments:
lymphocytes B = assay: Cytotoxicity by MTS assay, microscope observation and FACS; settings: for Cytotoxicity MTS Assay: MTS cell proliferation assay (Promega); for cellular proportion of cell death by FACS: pre-B lymphocytes, 20 μM
[1] = system: human retinoblastoma cell lines Y79; type: cell-based; settings: for Y79 cell died: 5 μM
Procedure: FIG. 8: Cell Death Induced in the Retinoblastoma Cell Line Y79 by Ant-CC2 and Ant-LZ Peptides Rb cell line Y79 were treated with various concentration of the Ant-CC2 (WT) (filled squares) or Ant-CC2 (Mu) (open squares) (A), or Ant-LZ (WT) (filled circles), or Ant-LZ (Mu) (open circles) (B), or Ant peptide (open triangle) (C) for 3 hours (A, B) or 16 hours (C). Cell survival was then evaluated using the MTS assay as described in “Materials and methods”
The detection of cell death was performed using the MTS assay provided by Promega (CellTiter 96® AQueous one solution cell proliferation assay). Briefly, 0.3×10^6 Y79 cells in 450 μl were treated with 50 μl of the wild type Ant-CC2 and Ant-LZ peptides (0.1 to 20 μM) or their mutants Ant-CC2 (Mu), Ant-LZ (Mu) or the Ant or left untreated in serum-free RPMI medium at 37° C. After an incubation of […], an aliquot of the cell suspension (200 μl, 0.12×10^6 cells), was then transferee in 96-well plates and mixed with the MTS solution (40 μl) containing the MTS compound and the phenazine ethosulfate. Two hours after, the quantity of formazan produced by viable cells was measured using an automated microplate reader (Bio-TeK Instruments, INC) at 490 nm absorbance. Cell survival was observed under microscope and was estimated as a percentage of the value of untreated controls. The background of the reaction was determined by mixing the MTS solution with cell-free RPMI medium. To increase the sensitivity of the cell death assay, the present inventors used peptides devoid of BODIPY-labeling because the absorption spectra of the fluorophor overlaps with that of the formazan product. All experiments were repeated twice and each experiment condition was repeated in duplicate wells in each experiment.
Given that specific NF-κB inhibition may trigger apoptosis of cancer cells, the present inventors examined the effects of both cell-permeable Ant-LZ and Ant-CC2 peptides on human retinoblastoma cell viability. In these experiments, the present inventors used NEMO-derived polypeptides without a N-terminal BODIPY labeling to prevent any interference with the MTS assay (see “Materials and Methods”). […] The effect of the Ant-LZ peptide on cell death was stronger than that of the Ant-CC2. This induction of cell death was significant since Rb cell survival was 20% and 65% with the Ant-LZ and the Ant-CC2 peptides respectively when cancer cells were treated for 3 hours at a 20 μM concentration. […] In contrast, 80% and 55% of Y79 cell died in the presence of Ant-LZ and Ant-CC2 respectively at 5 μM concentration (FIG. 8C).

70Z/3-C3 cells = assay: FACS analysis of cellular uptake of BODIPY-labeled peptides; type: cell-based, murine; settings: 2 μM BODIPY-peptide, 2 h at 37° C.
Procedure: All experiments were performed in duplicates.
The uptake of BODIPY labeled NEMO peptides into living cells were monitored by fluorescence activated cell sorting (FACS) which is a conventional tool used to quantify cellular internalization.
Then present inventors next investigated the kinetic and concentration dependency of cellular uptake for the Ant-CC2 BODIPY peptide keeping in mind that the transduction of other NEMO peptides should occur in a similar fashion (FIGS. 2B and 2C).

[2] = system: LPS-induced NF-κB activation in 70Z/3-C3 cells; assay: NF-κB inhibition assay, first procedure (NF-κB dependent β-galactosidase reporter, LPS stimulation); type: cell-based, murine; settings: for effect on LPS-induced NF-κB activation (in words): 20 μM peptide, 2 h, then 5 h LPS; for effect on LPS-induced NF-κB activation of peptides not fused to antennapedia (in words): 2 h peptide, then 3 h LPS (FIG. 3D)
Procedure: The resulting cell line, 70Z3-C3, was incubated for 2 hours in the absence or in the presence of 20 μM of antennapedia peptide (Ant), or BODIPY-labeled antennapedia peptide (BODIPY-Ant), or BODIPY-labeled antennapedia peptide coupled to CC2 (BODIPY-Ant-CC2) or LZ (BODIPY-Ant-LZ) peptides, After peptide internalization, cells were treated for 5 hours with LPS (3 μg/ml, (+) in left panel) or untreated (right panel and (−) in left panel) and the NF-κB activity was measured by β-galactosidase assay. […] Cells were treated as in (A) but with different concentration of peptide as indicated. The potential of each peptide to inhibit LPS-induced NF-κB activation was measured by determining the IC50 value that correspond to 50% inhibition of LPS-induced NF-κB activation as compared to the control (no peptide) (C). […] Control (no peptide) or CC2, or LZ peptides, with (BODIPY-ANT-CC2, BODIPY-ANT-LZ) or without the antennapedia sequence at the N-terminus (CC2, LZ) were incubated for 2 hours with 70Z3-C3 cells followed with (+) or without (−) the LPS-treatment for 3 hours. NF-κB activity was then measured by β-galactosidase assay.
In a first procedure 2.2×10^5 70Z/3-C3 cells in 220 μl of RPMI 1640 supplemented with 10% fetal calf serum (FCS) and 50 μM β-mercaptoethanol were placed in a 96-well plate and incubated with various concentrations of peptide (0 to 20 μM) at 37° C. in 5% CO2 incubator. After two hours an equal portion (100 μl) of each cell sample transferred in two wells containing each 10^5 cells. One aliquot of cells was then treated for 5 hours with lipopolysaccharides from Salmonella abortus (Sigma) at 0.5 μg/ml final concentration, and the other one left-treated. After 5 hours, cells were centrifuged at 400×g for 5 min at room temperature and the cell pellets were washed three times with cold PBS (250 μl) by centrifugation. Cells were then lysed in the lysis buffer (25 mM tris-phosphate buffer at pH 7.8 containing 8 mM magnesium chloride, 1 mM dithioerythreitol, 1% Triton X-100, 15% glycerol and a protease inhibitor mixture (Roche)), and samples were centrifuged at 4° C. for 20 min to clarify the lysate. The supernatant was then kept on ice, and 30 μl was then assayed to measure the β-galactosidase activity with a plate luminometer (Berthold) using the galacton-star as chemiluminescent substrate (BD Biosciences Clontech, Bronstein et al., 1989). Background of reaction was measured by mixing for 1 hour 30 μl of lysis buffer with the reaction buffer (196 μl) and the galacton-star substrate (4 μl) provided by BD Biosciences.

[3] = Kd and cooperativity indice of NLM peptides by Hill coefficient calculation; type: binding; settings: for Kd: Hill equation fit, read-out: dissociation constant Kd
From the text: The present inventors compared NLM-DR to the corresponding NLM peptide by measuring the respective cooperativity indices, which evidence an advantage of NLM-DR mutated peptide over the wild-type.
The calculation of the “cooperativity indice” by means of Hill coefficient is based on the following formula Boundmax×L^n/(KD^n+L^n)
Boundmax is the maximum concentration of the bound ligand,
L is the concentration of the free ligand,
n is the cooperativity indice and
KD, is the affinity constant of the ligand by the protein.
If these values were to be compared to those obtained from the curves without accounting for cooperativity, the affinity of NLM-DR peptide would be 75 times higher than the affinity of wild-type NLM peptide.

[4] = longer treatment (FIG. 8C, 16 hours)

CC[C@H](C)[C@H](NC(=O)[C@H](CC(=O)O)NC(=O)[C@H](C)NC(=O)[C@H](CCC(N)=O)NC(=O)[C@H](C)NC(=O)[C@H](CCCCN)NC(=O)[C@H](CC(C)C)NC(=O)[C@H](CCCNC(=N)N)NC(=O)[C@H](CCCNC(=N)N)NC(=O)[C@H](CCCNC(=N)N)NC(=O)[C@H](CCC(N)=O)NC(=O)[C@H](CCCNC(=N)N)NC(=O)[C@H](CCCNC(=N)N)NC(=O)[C@H](CCCCN)NC(=O)[C@H](CCCCN)NC(=O)[C@H](CCCNC(=N)N)NC(=O)CNC(=O)[C@H](Cc1ccc(O)cc1)NC(=O)[C@H](CSC1CC(=O)N(CCNC(=O)CCC2=[N+]3C(=Cc4c(C)cc(C)n4[B-]3(F)F)C=C2)C1=O)NC(C)=O)C(=O)N[C@@H](Cc1ccc(O)cc1)C(=O)N[C@@H](CCCCN)C(=O)N[C@@H](C)C(=O)N[C@@H](CCCNC(=N)N)C(=O)N[C@@H](Cc1ccccc1)C(=O)N[C@@H](CCC(N)=O)C(=O)N[C@@H](C)C(=O)N[C@@H](CCC(=O)O)C(=O)N[C@@H](CCCNC(=N)N)C(=O)N[C@@H](Cc1c[nH]cn1)C(=O)N[C@@H](C)C(=O)N[C@@H](CCCNC(=N)N)C(=O)N[C@@H](CCC(=O)O)C(=O)N[C@@H](CCCCN)C(N)=O (stereo partly shown) [BODIPY-TAT-NLM-DR] (Ac-C(BODIPYFLEthylmaleimide)YGRKKRRQRRRLKAQADIYKARFQAERHAREK-NH2)
Cytotoxicity Cell morphology FACS (lymphocytes B): no | Cytotoxicity MTS Assay (lymphocytes B): no | Cytotoxicity Cell morphology Microscope (lymphocytes B): no

Ac-C(Cam)RQIKIWFQNRRMKWKKSKGMQLEDLRQQLQQAEEALVAKQELIDKLKEEAEQHKIV-NH2 [Ant-CC2]
Y79 cell died [1, 4]: 55% | cellular proportion of cell death by FACS (lymphocytes B; absence of stimuli): 9% | cellular proportion of cell death by FACS (lymphocytes B; after LPS stimulation): 13% | proportion of cells transduced (70Z/3-C3 cells): 100%

Ac-CRQIKIWFQNRRMKWKKLKAQADIYKADFQAERHAREKLVEKKEYLQEQLEQLQREFNKL-NH2 [Ant-LZ]
Y79 cell died [1, 4]: 80% | proportion of cells transduced (70Z/3-C3 cells): 100%

Ant-CC2 (Mu): mutant Ant-CC2 devoid of BODIPY-labeling (sequence of SEQ ID NO: 4) (Ac-CRQIKIWFQNRRMKWKKSKGMQLEDLRQQGQQAEEAGVAKQELGDKLKEEAEQHKIV-NH2; not fully specified (residue 1))
induction of cell death (in words) ([1]; Y79 cells, 3 hours, mutant peptides): did not induce concentration cell death | proportion of cells transduced (70Z/3-C3 cells): 100%

Ant-LZ (Mu): mutant Ant-LZ devoid of BODIPY-labeling (sequence of SEQ ID NO: 8) (Ac-CRQIKIWFQNRRMKWKKLKAQADIYKADFQAERHAREKLVEKKEYSQEQLEQSQREFNKL-NH2; not fully specified (residue 1))
proportion of cells transduced (70Z/3-C3 cells): 100%

Ant: third helix of the Antennapedia/penetratin protein, internalization peptide (SEQ ID NO: 1), without BODIPY label (CRQIKIWFQNRRMKWKK) [reference compound]
effect on cell survival (in words) ([1]; Y79 cells, longer treatment (FIG. 8C, 16 hours)): did not affect cell survival | effect on LPS-induced NF-κB activation (in words) [2]: same level of NF-κB activation as the control

B-CRQIKIWFQNRRMKWKK ({BODIPY}-CRQIKIWFQNRRMKWKK; reading uncertain) [BODIPY-Ant, reference compound]
effect on LPS-induced NF-κB activation (in words) [2]: same level of NF-κB activation as the control

B-CRQIKIWFQNRRMKWKKLAQADIYKARFQAERHAREK (CRQIKIWFQNRRMKWKKLKAQADIYKARFQAERHAREK; not fully specified (N-terminus)) [BODIPY-Ant-NLM-DR]
Cytotoxicity Cell morphology FACS (lymphocytes B): + | Cytotoxicity MTS Assay (lymphocytes B): no | Cytotoxicity Cell morphology Microscope (lymphocytes B): +

B-CRRRRRRRLKAQAKIYKARFQAERHAREK [BODIPY-R7-NLM-DR] (CRRRRRRRLKAQADIYKARFQAERHAREK; not fully specified (N-terminus))
Cytotoxicity Cell morphology FACS (lymphocytes B): no | Cytotoxicity Cell morphology Microscope (lymphocytes B): no

B-CRRRRRRRLKAQAKIYKARFQAERHAREK [BODIPY-R9-NLM-DR] (CRRRRRRRRRLKAQADIYKARFQAERHAREK; not fully specified (N-terminus))
Cytotoxicity Cell morphology FACS (lymphocytes B): no | Cytotoxicity MTS Assay (lymphocytes B): no | Cytotoxicity Cell morphology Microscope (lymphocytes B): no

LKAQADIYKADFQAERHAREKLVEKKEYLQEQLEQLQREFNKL [LZ (WT)]
effect on LPS-induced NF-κB activation of peptides not fused to antennapedia (in words) [2]: same level of activation as the control

LKAQADIYKARFQAERHAREK [NLM-DR]
Kd [3]: 170 µM | affinity of NLM-DR peptide relative to wild-type NLM peptide ([3]; values compared without accounting for cooperativity): 75 times

NLM: corresponding wild type NLM peptide covering the same 21 amino acid range as NLM-DR (LKAQADIYKADFQAERHAREK-NH2; not fully specified (N-terminus))
Kd [3]: 240 µM

SKGMQLEDLRQQLQQAEEALVAKQELIDKLKEEAEQHKIV [CC2 (WT)]
effect on LPS-induced NF-κB activation of peptides not fused to antennapedia (in words) [2]: same level of activation as the control
